Target: human SPR (Homo sapiens (Human), UniProt P35270)
Assay: Evaluation Example 2: Measurement of human SPR inhibitory activity (seven concentrations, sepiapterin absorbance at 420 nm)
Type: biochemical
Conditions: sepiapterin absorbance, Table 41, read-out: concentration at 50% inhibition of human SPR (IC50)
How it was run: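 His-tagged full-length human SPR (1-261) was expressed in E. coli and the tag removed. Enzyme at 150 ng/mL in 100 mM Tris-HCl pH 7.5/0.01% BSA was mixed with compound (0.14–100 nM, seven points), 120 μM sepiapterin and 160 μM NADPH, both as added-solution concentrations. After 240 min at room temperature, remaining sepiapterin was read at 420 nm to give percent inhibition.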

Chain of human SPR (P35270 whole entry): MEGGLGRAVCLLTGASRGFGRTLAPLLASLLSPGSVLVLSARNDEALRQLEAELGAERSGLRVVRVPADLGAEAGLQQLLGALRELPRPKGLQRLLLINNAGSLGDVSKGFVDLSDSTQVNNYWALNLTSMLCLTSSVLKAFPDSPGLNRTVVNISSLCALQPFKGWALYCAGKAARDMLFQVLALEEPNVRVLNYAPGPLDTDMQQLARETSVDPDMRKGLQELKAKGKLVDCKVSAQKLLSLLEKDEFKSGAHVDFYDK

SMILES	IC50 [nM]
COC[C@@H]1COCCN1C(=O)/C=C/c1c(C)nn2c(O)c(C(=O)NC3CC3)c(=O)n(CC(C)C)c12 [Synthesis Example 682, (R,E)-N-Cyclopropyl-7-hydroxy-4-isobutyl-3-(3-(3-(methoxymethyl)morpholino)-3-oxoprop-1-en-1-yl)-2-methyl-5-oxo-4,5-dihydropyrazolo[1,5-a]pyrimidine-6-carboxamide]	0.85
COC[C@H]1COCCN1C(=O)/C=C/c1c(C)nn2c(O)c(C(=O)NC3CC3)c(=O)n(CC(C)C)c12 [Synthesis Example 683, (S,E)-N-Cyclopropyl-7-hydroxy-4-isobutyl-3-(3-(3-(methoxymethyl)morpholino)-3-oxoprop-1-en-1-yl)-2-methyl-5-oxo-4,5-dihydropyrazolo[1,5-a]pyrimidine-6-carboxamide]	0.82
Cc1nn2c(O)c(C(=O)NC3CC3)c(=O)n(CC(C)C)c2c1/C=C/C(=O)N1CCC(C#N)CC1 [Synthesis Example 684, (E)-3-(3-(4-Cyanopiperidin-1-yl)-3-oxoprop-1-en-1-yl)-N-cyclopropyl-7-hydroxy-4-isobutyl-2-methyl-5-oxo-4,5-dihydropyrazolo[1,5-a]pyrimidine-6-carboxamide]	0.89
Cc1nn2c(O)c(C(=O)NC3CC3)c(=O)n(CC(C)C)c2c1/C=C/C(=O)N1CCN(CC(F)(F)F)CC1 [Synthesis Example 685, (E)-N-Cyclopropyl-7-hydroxy-4-isobutyl-2-methyl-5-oxo-3-(3-oxo-3-(4-(2,2,2-trifluoroethyl)piperazin-1-yl)prop-1-en-1-yl)-4,5-dihydropyrazolo[1,5-a]pyrimidine-6-carboxamide]	1.23
Cc1nn2c(O)c(C(=O)NC3CC3)c(=O)n(CC(C)C)c2c1/C=C/C(=O)N(C)CC(C)(C)O [Synthesis Example 686, (E)-N-Cyclopropyl-7-hydroxy-3-(3-((2-hydroxy-2-methylpropyl)(methyl)amino)-3-oxoprop-1-en-1-yl)-4-isobutyl-2-methyl-5-oxo-4,5-dihydropyrazolo[1,5-a]pyrimidine-6-carboxamide]	1
Cc1nn2c(O)c(C(=O)NC3CC3)c(=O)n(CC(C)C)c2c1/C=C/C(=O)N(C)CCC#N [Synthesis Example 687, (E)-3-(3-((2-Cyanoethyl)(methyl)amino)-3-oxoprop-1-en-1-yl)-N-cyclopropyl-7-hydroxy-4-isobutyl-2-methyl-5-oxo-4,5-dihydropyrazolo[1,5-a]pyrimidine-6-carboxamide]	0.77
Cc1nn2c(O)c(C(=O)NC3CC3)c(=O)n(CC(C)C)c2c1/C=C/C(=O)N1CC[C@H](C#N)C1 [Synthesis Example 688, (S,E)-3-(3-(3-Cyanopyrrolidin-1-yl)-3-oxoprop-1-en-1-yl)-N-cyclopropyl-7-hydroxy-4-isobutyl-2-methyl-5-oxo-4,5-dihydropyrazolo[1,5-a]pyrimidine-6-carboxamide]	0.91
Cc1nn2c(O)c(C(=O)NC3CC3)c(=O)n(CC(C)C)c2c1/C=C/C(=O)N1CC[C@@H](C#N)C1 [Synthesis Example 689, (R,E)-3-(3-(3-Cyanopyrrolidin-1-yl)-3-oxoprop-1-en-1-yl)-N-cyclopropyl-7-hydroxy-4-isobutyl-2-methyl-5-oxo-4,5-dihydropyrazolo[1,5-a]pyrimidine-6-carboxamide]	0.95
Cc1nn2c(O)c(C(=O)NC3CC3)c(=O)n(CC(C)(C)C)c2c1/C=C/C(=O)N(C)CC#N [Synthesis Example 690, (E)-3-(3-((Cyanomethyl)(methyl)amino)-3-oxoprop-1-en-1-yl)-N-cyclopropyl-7-hydroxy-2-methyl-4-neopentyl-5-oxo-4,5-dihydropyrazolo[1,5-a]pyrimidine-6-carboxamide]	1.46
CC[C@H]1COCCN1C(=O)/C=C/c1c(C)nn2c(O)c(C(=O)NC3CC3)c(=O)n(CC(C)(C)C)c12 [Synthesis Example 691, (S,E)-N-Cyclopropyl-3-(3-(3-ethylmorpholino)-3-oxoprop-1-en-1-yl)-7-hydroxy-2-methyl-4-neopentyl-5-oxo-4,5-dihydropyrazolo[1,5-a]pyrimidine-6-carboxamide]	0.82
Cc1nn2c(O)c(C(=O)NC3CC3)c(=O)n(CC(C)(C)C)c2c1/C=C/C(=O)N1CCN(C2CC(F)(F)C2)CC1 [Synthesis Example 692, (E)-N-Cyclopropyl-3-(3-(4-(3,3-difluorocyclobutyl)piperazin-1-yl)-3-oxoprop-1-en-1-yl)-7-hydroxy-2-methyl-4-neopentyl-5-oxo-4,5-dihydropyrazolo[1,5-a]pyrimidine-6-carboxamide]	0.8
COC[C@@H]1COCCN1C(=O)/C=C/c1c(C)nn2c(O)c(C(=O)NC3CC3)c(=O)n(CC(C)(C)C)c12 [Synthesis Example 693, (R,E)-N-Cyclopropyl-7-hydroxy-3-(3-(3-(methoxymethyl)morpholino)-3-oxoprop-1-en-1-yl)-2-methyl-4-neopentyl-5-oxo-4,5-dihydropyrazolo[1,5-a]pyrimidine-6-carboxamide]	0.71
COC[C@H]1COCCN1C(=O)/C=C/c1c(C)nn2c(O)c(C(=O)NC3CC3)c(=O)n(CC(C)(C)C)c12 [Synthesis Example 694, (S,E)-N-Cyclopropyl-7-hydroxy-3-(3-(3-(methoxymethyl)morpholino)-3-oxoprop-1-en-1-yl)-2-methyl-4-neopentyl-5-oxo-4,5-dihydropyrazolo[1,5-a]pyrimidine-6-carboxamide]	0.85
Cc1nn2c(O)c(C(=O)NC3CC3)c(=O)n(CC(C)C)c2c1/C=C/C(=O)N1CCOc2ccncc21 [Synthesis Example 695, (E)-N-Cyclopropyl-3-(3-(2,3-dihydro-4H-pyrido[4,3-b][1,4]oxazin-4-yl)-3-oxoprop-1-en-1-yl)-7-hydroxy-4-isobutyl-2-methyl-5-oxo-4,5-dihydropyrazolo[1,5-a]pyrimidine-6-carboxamide]	1.3
Cc1nn2c(O)c(C(=O)NC3CC3)c(=O)n(CC(C)C)c2c1/C=C/C(=O)N1CCOc2ccccc21 [Synthesis Example 696, (E)-N-Cyclopropyl-3-(3-(2,3-dihydro-4H-benz[b][1,4]oxazin-4-yl)-3-oxoprop-1-en-1-yl)-7-hydroxy-4-isobutyl-2-methyl-5-oxo-4,5-dihydropyrazolo[1,5-a]pyrimidine-6-carboxamide]	1.71
Cc1nn2c(O)c(C(=O)NC3CC3)c(=O)n(CC(C)C)c2c1/C=C/C(=O)N1CCN(C2CC(F)(F)C2)C[C@H]1C [Synthesis Example 697, (R,E)-N-Cyclopropyl-3-(3-(4-(3,3-difluorocyclobutyl)-2-methylpiperazin-1-yl)-3-oxoprop-1-en-1-yl)-7-hydroxy-4-isobutyl-2-methyl-5-oxo-4,5-dihydropyrazolo[1,5-a]pyrimidine-6-carboxamide]	1.22
Cc1nn2c(O)c(C(=O)NC3CC3)c(=O)n(CC(C)C)c2c1/C=C/C(=O)N1CCN(CC2CC(F)(F)C2)CC1 [Synthesis Example 698, (E)-N-Cyclopropyl-3-(3-(4-((3,3-difluorocyclobutyl)methyl)piperazin-1-yl)-3-oxoprop-1-en-1-yl)-7-hydroxy-4-isobutyl-2-methyl-5-oxo-4,5-dihydropyrazolo[1,5-a]pyrimidine-6-carboxamide]	1.52
Cc1nn2c(O)c(C(=O)NC3CC3)c(=O)n(CC(C)C)c2c1/C=C/C(=O)N1CCc2ccncc21 [Synthesis Example 699, (E)-N-Cyclopropyl-3-(3-(2,3-dihydro-1H-pyrrolo[2,3-c]pyridin-1-yl)-3-oxoprop-1-en-1-yl)-7-hydroxy-4-isobutyl-2-methyl-5-oxo-4,5-dihydropyrazolo[1,5-a]pyrimidine-6-carboxamide]	1.47
Cc1nn2c(O)c(C(=O)NC3CC3)c(=O)n(CC(C)C)c2c1/C=C/C(=O)N1CC[C@@H](C(C)(C)O)C1 [Synthesis Example 700, (R,E)-N-Cyclopropyl-7-hydroxy-3-(3-(3-(2-hydroxypropan-2-yl)pyrrolidin-1-yl)-3-oxoprop-1-en-1-yl)-4-isobutyl-2-methyl-5-oxo-4,5-dihydropyrazolo[1,5-a]pyrimidine-6-carboxamide]	0.96
Cc1nn2c(O)c(C(=O)NC3CC3)c(=O)n(CC(C)C)c2c1/C=C/C(=O)N1CCN(C)C[C@@H]1C [Synthesis Example 701, (S,E)-N-Cyclopropyl-3-(3-(2,4-dimethylpiperazin-1-yl)-3-oxoprop-1-en-1-yl)-7-hydroxy-4-isobutyl-2-methyl-5-oxo-4,5-dihydropyrazolo[1,5-a]pyrimidine-6-carboxamide]	0.98
Cc1nn2c(O)c(C(=O)NC3CC3)c(=O)n(CC(C)C)c2c1/C=C/C(=O)N1CCN(C)C[C@H]1C [Synthesis Example 702, (R,E)-N-Cyclopropyl-3-(3-(2,4-dimethylpiperazin-1-yl)-3-oxoprop-1-en-1-yl)-7-hydroxy-4-isobutyl-2-methyl-5-oxo-4,5-dihydropyrazolo[1,5-a]pyrimidine-6-carboxamide]	0.87
Cc1nn2c(O)c(C(=O)NC3CC3)c(=O)n(CC(C)C)c2c1/C=C/C(=O)N1CCN(CC2CC(F)(F)C2)C[C@@H]1C [Synthesis Example 703, (S,E)-N-Cyclopropyl-3-(3-(4-((3,3-difluorocyclobutyl)methyl)-2-methylpiperazin-1-yl)-3-oxoprop-1-en-1-yl)-7-hydroxy-4-isobutyl-2-methyl-5-oxo-4,5-dihydropyrazolo[1,5-a]pyrimidine-6-carboxamide]	1.44
Cc1nn2c(O)c(C(=O)NC3CC3)c(=O)n(CC(C)C)c2c1/C=C/C(=O)N1CCN(CC2CC(F)(F)C2)C[C@H]1C [Synthesis Example 704, (R,E)-N-Cyclopropyl-3-(3-(4-((3,3-difluorocyclobutyl)methyl)-2-methylpiperazin-1-yl)-3-oxoprop-1-en-1-yl)-7-hydroxy-4-isobutyl-2-methyl-5-oxo-4,5-dihydropyrazolo[1,5-a]pyrimidine-6-carboxamide]	1.52
